The numbers were not newly measured in patent US6533967B1, “Initiating system for solid polyester granule manufacture” (Orica Australia Pty Ltd, priority 1999, dated 2003), which cites them from elsewhere.

The test system of the data set is rat. Particulars: inhalation of vapours, 4 h.

As for `CCN(CC)c1ccccc1` [N,N-diethylaniline], the LC50 rat is recorded as 1920 mg/m^3/4 h.
